Data: PubChem BioAssay AID1259407 (Chemical Carcinogenesis Research Information System (CCRIS), 2018)
Active and inactive are the calls of the source. No rule for the calls is given here.

Tested on: CCRIS mutagenicity, Ames/micronucleus/aberration tests
Assay: CCRIS mutagenicity studies
[1] = Test System: AMES SALMONELLA TYPHIMURIUM, Strain/Indicator: TA98, Metabolic Activation: NONE, Method: STANDARD PLATE
[2] = Test System: AMES SALMONELLA TYPHIMURIUM, Strain/Indicator: TA100, Metabolic Activation: NONE, Method: STANDARD PLATE

COC(C)(C)C
mutagenic call (Test System: AMES SALMONELLA TYPHIMURIUM, Strain/Indicator: TA98, Metabolic Activation: NONE): inactive; negative
mutagenic call (Test System: AMES SALMONELLA TYPHIMURIUM, Strain/Indicator: TA98, Metabolic Activation: NONE, Method: MICROSUSPENSION): inactive; negative
mutagenic call [1]: inactive; negative
mutagenic call (Test System: AMES SALMONELLA TYPHIMURIUM, Strain/Indicator: TA98, Metabolic Activation: RAT LIVER S-9): inactive; negative
mutagenic call (Test System: AMES SALMONELLA TYPHIMURIUM, Strain/Indicator: TA98, Metabolic Activation: RAT LIVER S-9, AROCLOR 1254, Method: STANDARD PLATE): inactive; negative
mutagenic call (Test System: AMES SALMONELLA TYPHIMURIUM, Strain/Indicator: TA98, Metabolic Activation: RAT, LIVER, S-9, AROCLOR 1254, Method: MICROSUSPENSION): inactive; negative
mutagenic call (Test System: AMES SALMONELLA TYPHIMURIUM, Strain/Indicator: TA100, Metabolic Activation: NONE): inactive; negative
mutagenic call (Test System: AMES SALMONELLA TYPHIMURIUM, Strain/Indicator: TA100, Metabolic Activation: NONE, Method: MICROSUSPENSION): inactive; negative
mutagenic call [2]: inactive; negative
mutagenic call (Test System: AMES SALMONELLA TYPHIMURIUM, Strain/Indicator: TA100, Metabolic Activation: RAT LIVER S-9): inactive; negative
mutagenic call (Test System: AMES SALMONELLA TYPHIMURIUM, Strain/Indicator: TA100, Metabolic Activation: RAT LIVER S-9, AROCLOR 1254, Method: STANDARD PLATE): inactive; negative
mutagenic call (Test System: AMES SALMONELLA TYPHIMURIUM, Strain/Indicator: TA100, Metabolic Activation: RAT, LIVER, S-9, AROCLOR 1254, Method: MICROSUSPENSION): inactive; negative
mutagenic call (Test System: AMES SALMONELLA TYPHIMURIUM, Strain/Indicator: TA102, Metabolic Activation: NONE, Method: STANDARD PLATE): inactive; negative
mutagenic call (Test System: AMES SALMONELLA TYPHIMURIUM, Strain/Indicator: TA102, Metabolic Activation: RAT, LIVER, S-9, PHENOBARBITAL-BETA-NAPHTHOFLAVONE, Method: STANDARD PLATE): inactive; negative
mutagenic call (Test System: AMES SALMONELLA TYPHIMURIUM, Strain/Indicator: TA104, Metabolic Activation: NONE, Method: MICROSUSPENSION): inactive; negative
mutagenic call (Test System: AMES SALMONELLA TYPHIMURIUM, Strain/Indicator: TA104, Metabolic Activation: RAT, LIVER, S-9, AROCLOR 1254, Method: MICROSUSPENSION): inactive; negative
mutagenic call (Test System: AMES SALMONELLA TYPHIMURIUM, Strain/Indicator: TA1535, Metabolic Activation: NONE, Method: MICROSUSPENSION): inactive; negative
mutagenic call (Test System: AMES SALMONELLA TYPHIMURIUM, Strain/Indicator: TA1535, Metabolic Activation: RAT, LIVER, S-9, AROCLOR 1254, Method: MICROSUSPENSION): inactive; negative
mutagenic call (Test System: Ames Salmonella typhimurium, Strain/Indicator: TA98, Metabolic Activation: None, Method: Plate incorporation): inactive; negative
mutagenic call (Test System: Ames Salmonella typhimurium, Strain/Indicator: TA98, Metabolic Activation: None, Method: Preincubation): inactive; negative
mutagenic call (Test System: Ames Salmonella typhimurium, Strain/Indicator: TA98, Metabolic Activation: Rat, Liver, S-9, Method: Plate incorporation): inactive; negative
mutagenic call (Test System: Ames Salmonella typhimurium, Strain/Indicator: TA98, Metabolic Activation: Rat, Liver, S-9, Method: Preincubation): inactive; negative
mutagenic call (Test System: Ames Salmonella typhimurium, Strain/Indicator: TA100, Metabolic Activation: None, Method: Plate incorporation): inactive; negative
mutagenic call (Test System: Ames Salmonella typhimurium, Strain/Indicator: TA100, Metabolic Activation: None, Method: Preincubation): inactive; negative
mutagenic call (Test System: Ames Salmonella typhimurium, Strain/Indicator: TA100, Metabolic Activation: Rat, Liver, S-9, Method: Plate incorporation): inactive; negative
mutagenic call (Test System: Ames Salmonella typhimurium, Strain/Indicator: TA100, Metabolic Activation: Rat, Liver, S-9, Method: Preincubation): inactive; negative
mutagenic call (Test System: Ames Salmonella typhimurium, Strain/Indicator: YG1041, Metabolic Activation: None, Method: Plate incorporation): inactive; negative
mutagenic call (Test System: Ames Salmonella typhimurium, Strain/Indicator: YG1041, Metabolic Activation: None, Method: Preincubation): inactive; negative
mutagenic call (Test System: Ames Salmonella typhimurium, Strain/Indicator: YG1042, Metabolic Activation: None, Method: Plate incorporation): inactive; negative
mutagenic call (Test System: Ames Salmonella typhimurium, Strain/Indicator: YG1042, Metabolic Activation: None, Method: Preincubation): inactive; negative
mutagenic call (Test System: MOUSE LYMPHOMA, Strain/Indicator: L5178Y (TK+/TK-), Metabolic Activation: RAT, LIVER, S-9, AROCLOR 1254, Method: SUSPENSION/PLATE): active; positive
mutagenic call (Test System: MOUSE LYMPHOMA, Strain/Indicator: L5178Y (TK+/TK-), Method: SUSPENSION/PLATE): inactive; negative
mutagenic call (Test System: UDS MOUSE HEPATOCYTES, Strain/Indicator: THY INCORP, Metabolic Activation: NONE, Method: IN-VIVO-IN VITRO): inactive; negative
mutagenic call (Test System: UDS RAT HEPATOCYTES, Strain/Indicator: THYMIDINE INCORPORATION, Metabolic Activation: NONE, Method: LIQUID SCINTILLATION COUNTING): active; positive
mutagenic call (Test System: UDS RAT HEPATOCYTES, Strain/Indicator: THYMIDINE INCORPORATION, Metabolic Activation: RAT LIVER S-9, AROCLOR 1254, Method: LIQUID SCINTILLATION COUNTING): active; positive

O=C1OCC(C(Br)Br)=C1Br
mutagenic call [2]: active; positive

CCN(CCCl)CCCNc1c2ccc(Cl)cc2nc2ccc(OC)nc12
mutagenic call [1]: active; positive
mutagenic call [2]: active; positive
mutagenic call (Test System: AMES SALMONELLA TYPHIMURIUM, Strain/Indicator: TA1535, Metabolic Activation: NONE, Method: STANDARD PLATE): inactive; negative
mutagenic call (Test System: AMES SALMONELLA TYPHIMURIUM, Strain/Indicator: TA1536, Metabolic Activation: NONE, Method: STANDARD PLATE): active; positive
mutagenic call (Test System: AMES SALMONELLA TYPHIMURIUM, Strain/Indicator: TA1537, Metabolic Activation: NONE, Method: STANDARD PLATE): active; positive
mutagenic call (Test System: AMES SALMONELLA TYPHIMURIUM, Strain/Indicator: TA1538, Metabolic Activation: NONE, Method: STANDARD PLATE): active; positive

c1cnc2c(c1)ccc1c2ccc2cccnc21
mutagenic call (Test System: AMES SALMONELLA TYPHIMURIUM, Strain/Indicator: TA100, Metabolic Activation: POOLED HUMAN LIVER MICROSOMES, Method: PREINCUBATION): active; positive
mutagenic call (Test System: AMES SALMONELLA TYPHIMURIUM, Strain/Indicator: TA100, Metabolic Activation: RAT, LIVER, S-9, PHENOBARBITAL AND 5,6-BENZOFLAVONE, Method: PREINCUBATION): active; positive
mutagenic call (Test System: Ames Salmonella typhimurium, Strain/Indicator: TA100, Metabolic Activation: Rat, Liver, S-9): active; positive
mutagenic call (Test System: LACZ TRANSGENIC MOUSE (MUTATM MOUSE), Strain/Indicator: LACZ MUTANT FREQUENCY, Method: LIVER, SPLEEN, LUNG, KIDNEY, BONE MARROW, COLON HARVESTED 7 D AFTER LAST DOSE, DNA ISOLATED): active; positive; g:c to t:a transversions in all organs

CCN(CCCCO)N=O
mutagenic call (Test System: AMES SALMONELLA TYPHIMURIUM, Strain/Indicator: TA1535, Metabolic Activation: RAT, LIVER, S-9, KC500 OR PHENOBARBITAL, Method: LIQUID SUSPENSION): active; positive

CNC(=O)N(C)C(=O)NO
mutagenic call [1]: inactive; negative
mutagenic call [2]: inactive; negative
